# From ChEMBL document CHEMBL1165930, “The anticancer activity of 3- and 10-bromofascaplysins is mediated by caspase-8, -9, -3-dependent apoptosis” (Bioorg Med Chem, 2010)
# pIC50: −log10 of the molar value. Activity calls are given as the source filed them. The calls are words filed in the database; no cut-off is given here.
# Experiments:
# JB6 Cl41 [1] = assay: Inhibition of EGF-stimulated neoplastic transformation of mouse JB6 Cl41 cells by anchorage-independent soft agar assay; assay type: functional, cell-based
# [2] = target: Transcription factor Jun (Mus musculus) (UniProt P05627); assay: Induction of AP1-mediated transcriptional activity in mouse JB6 Cl41 cells at 125 to 250 nM after 6 hrs by luciferase reporter gene assay relative to control; assay type: cell-based
# HL-60 [3] = assay: Induction of apoptosis in human HL60 cells assessed as change in mitochondrial permeability at 500 nM after 24 hrs by DiOC6 staining-based flow cytometry (RVb = 90.3%); assay type: functional
# [4] = target: Transcription factor Jun (Mus musculus) (UniProt P05627); assay: Induction of AP1-mediated transcriptional activity in mouse JB6 Cl41 cells after 24 hrs by luciferase reporter gene assay; assay type: cell-based
# THP-1 [5] = assay: Induction of apoptosis in human THP1 cells assessed as late apoptotic cells at 500 nM after 24 hrs by FITC-conjugated annexin V and propidium iodide staining-based flow cytometry; assay type: functional
# [6] = Effect on EGF-stimulated proliferation of mouse JB6 Cl41 cells assessed as cell viability at 250 nM after 22 hrs by MTS assay; assay type: functional; settings: JB6 Cl41, 22 h, read-out: Activity
# [7] = Selectivity ratio of INCC50 for mouse JB6 Cl41 cells to IC50 for mouse JB6 Cl41 cells; assay type: functional
# HL-60 [8] = assay: Induction of apoptosis in human HL60 cells assessed as decrease in procaspase-3 level at 250 nM after 24 hrs by Western blot analysis; assay type: functional, cell-based
# DLD-1 = assay: Cytotoxicity against human DLD1 cells after 22 hrs by MTS assay; assay type: functional, cell-based; settings: DLD-1, 22 h
# THP-1 [9] = assay: Induction of apoptosis in human THP1 cells assessed as non-viable necrotic cells at 2000 nM after 24 hrs by FITC-conjugated annexin V and propidium iodide staining-based flow cytometry; assay type: functional
# SK-MEL-28 = assay: Anticancer activity in human SK-MEL-28 cells assessed as inhibition of colony formation by anchorage-independent soft agar assay; assay type: functional
# JB6 Cl41 [10] = assay: Effect on EGF-stimulated proliferation of p38-expressing mouse JB6 Cl41 cells at 125 nM after 22 hrs by MTS assay; assay type: functional, cell-based
# THP-1 [11] = assay: Induction of apoptosis in human THP1 cells after 24 hrs by FITC-conjugated annexin V and propidium iodide staining-based flow cytometry; assay type: functional, cell-based
# [12] = Inhibition of EGF-stimulated viability of mouse JB6 Cl41 cells after 22 hrs by MTS assay; assay type: functional, cell-based; settings: JB6 Cl41, 22 h
# HL-60 [13] = assay: Anticancer activity in human HL60 cells assessed as inhibition of colony formation by anchorage-independent soft agar assay; assay type: functional
# [14] = target: Cellular tumor antigen p53 (Mus musculus) (UniProt P02340); assay: Inhibition of p53-mediated transcriptional activity in mouse JB6 Cl41 cells at 125 to 250 nM after 24 hrs by luciferase reporter gene assay relative to control; assay type: cell-based
# [15] = target: Cellular tumor antigen p53 (Mus musculus) (UniProt P02340); assay: Inhibition of p53-mediated transcriptional activity in mouse JB6 Cl41 cells at 125 to 500 nM by luciferase reporter gene assay; assay type: cell-based; settings: TDE = time-dependent effect
# HL-60 [16] = assay: Induction of apoptosis in human HL60 cells assessed as decrease in PARP level at 250 nM after 24 hrs by Western blot analysis; assay type: functional, cell-based
# HL-60 [17] = assay: Induction of apoptosis in human HL60 cells assessed as decrease in Bid protein level at 250 nM after 24 hrs by Western blot analysis; assay type: functional, cell-based
# [18] = Effect on EGF-stimulated proliferation of JNK1-expressing mouse JB6 Cl41 cells assessed as cell viability at 125 nM after 22 hrs by MTS assay; assay type: functional; settings: JB6 Cl41, 22 h, read-out: Activity
# HeLa [19] = assay: Selectivity ratio of INCC50 for human HeLa cells to IC50 for human HeLa cells; assay type: functional
# HL-60 [20] = assay: Induction of apoptosis in human HL60 cells assessed as decrease in procaspase-8 level at 250 nM after 24 hrs by Western blot analysis; assay type: functional, cell-based
# [21] = Effect on EGF-stimulated proliferation of p38-expressing mouse JB6 Cl41 cells assessed as cell viability at 250 nM after 22 hrs by MTS assay; assay type: functional; settings: JB6 Cl41, 22 h, read-out: Activity
# MDA-MB-231 = assay: Cytotoxicity against human MDA-MB-231 cells after 22 hrs by MTS assay; assay type: functional, cell-based; settings: MDA-MB-231, 22 h
# HL-60 [22] = assay: Induction of apoptosis in human HL60 cells assessed as decrease in procaspase-8 level at 500 nM after 24 hrs by Western blot analysis; assay type: functional, cell-based
# [23] = target: Cellular tumor antigen p53 (Mus musculus) (UniProt P02340); assay: Inhibition of p53-mediated transcriptional activity in mouse JB6 Cl41 cells after 24 hrs by luciferase reporter gene assay; assay type: cell-based; settings: TDE = time-dependent effect
# HeLa [24] = assay: Anticancer activity in human HeLa cells assessed as inhibition of colony formation by anchorage-independent soft agar assay; assay type: functional
# THP-1 [25] = assay: Cytotoxicity against human THP1 cells after 22 hrs by MTS assay; assay type: functional, cell-based; settings: THP-1, 22 h
# HL-60 [26] = assay: Induction of apoptosis in human HL60 cells assessed as decrease in procaspase-9 level at 500 nM after 24 hrs by Western blot analysis; assay type: functional, cell-based
# THP-1 [27] = assay: Induction of apoptosis in human THP1 cells assessed as early apoptotic cells at 1000 nM after 24 hrs by FITC-conjugated annexin V and propidium iodide staining-based flow cytometry; assay type: functional
# HL-60 [28] = assay: Induction of apoptosis in human HL60 cells assessed as early apoptotic cells at 250 nM after 24 hrs by FITC-conjugated annexin V and propidium iodide staining-based flow cytometry; assay type: functional
# HL-60 [29] = assay: Induction of apoptosis in human HL60 cells assessed as total apoptotic cells at 1000 nM after 24 hrs by FITC-conjugated annexin V and propidium iodide staining-based flow cytometry; assay type: functional
# [30] = Cytotoxicity against human SNUC4 cells after 22 hrs by MTS assay; assay type: functional, cell-based; settings: SNU-C4, 22 h
# Cellular tumor antigen p53 (Mus musculus), sequence (P02340 whole entry): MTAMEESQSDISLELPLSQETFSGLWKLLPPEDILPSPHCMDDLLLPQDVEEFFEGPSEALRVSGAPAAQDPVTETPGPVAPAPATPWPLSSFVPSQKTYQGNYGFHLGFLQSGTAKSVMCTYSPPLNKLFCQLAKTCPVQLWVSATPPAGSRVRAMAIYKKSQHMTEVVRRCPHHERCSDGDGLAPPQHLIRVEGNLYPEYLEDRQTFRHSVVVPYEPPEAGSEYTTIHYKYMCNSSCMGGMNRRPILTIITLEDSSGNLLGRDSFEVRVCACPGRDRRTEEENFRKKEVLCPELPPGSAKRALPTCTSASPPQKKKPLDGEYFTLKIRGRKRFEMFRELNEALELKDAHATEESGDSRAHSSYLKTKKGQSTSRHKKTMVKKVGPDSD
# Transcription factor Jun (Mus musculus), sequence (P05627 whole entry): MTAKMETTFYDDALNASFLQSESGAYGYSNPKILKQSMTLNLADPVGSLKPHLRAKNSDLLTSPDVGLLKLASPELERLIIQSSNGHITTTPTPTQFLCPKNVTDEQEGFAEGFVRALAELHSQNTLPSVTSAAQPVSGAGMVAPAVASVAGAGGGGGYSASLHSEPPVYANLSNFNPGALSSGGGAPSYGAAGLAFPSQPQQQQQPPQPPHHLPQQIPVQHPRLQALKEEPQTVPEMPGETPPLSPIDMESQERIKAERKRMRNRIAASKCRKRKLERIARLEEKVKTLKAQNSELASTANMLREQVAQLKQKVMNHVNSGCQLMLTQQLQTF
smiles,measurement,setting,value
O=C1c2ccc(Br)cc2-[n+]2ccc3c([nH]c4ccccc43)c21.[Cl-],inhibition,JB6 Cl41 [1],Dose-dependent effect
same,fold change (FC),[2],2
same,Activity,HL-60 [3],30.6%
same,Activity,[4],Dose-dependent effect
same,Activity,THP-1 [5],12.4%
same,viability at 0.25 µM,[6],60%
same,Selectivity ratio,[7],2.7
same,inhibition,HL-60 [8],Active
same,pIC50,DLD-1,6.61
same,Activity,THP-1 [9],23.5%
same,INCC50,SK-MEL-28,162.9 nM
same,Activity,JB6 Cl41 [10],inactive
same,Activity,THP-1 [11],Dose-dependent effect
same,pIC50,[12],6.55
same,INCC50,HL-60 [13],103.5 nM
same,inhibition,[14],40%
same,inhibition,[15],tde
same,inhibition,HL-60 [16],Active
same,inhibition,HL-60 [17],Active
same,viability at 0.125 µM,[18],60%
same,Selectivity ratio,HeLa [19],3.1
same,inhibition,HL-60 [20],Active
same,viability at 0.25 µM,[21],40%
same,pIC50,MDA-MB-231,6.24
same,inhibition,HL-60 [22],Active
same,inhibition,[23],tde
same,INCC50,HeLa [24],108.1 nM
same,pIC50,THP-1 [25],6.28
same,inhibition,HL-60 [26],Active
same,Activity,THP-1 [27],17.9%
same,Activity,HL-60 [28],40%
same,Activity,HL-60 [29],90%
same,pIC50,[30],6.62
